In patent US8871280B1, “Compositions and methods for treating fungal activity in plants or soil” (The United States of America, as represented by the …, priority 2011, dated 2014):

Key:
[1] = system: Rhizoctonia solani; experiment: Greenhouse suppression of damping off of cucumber seedlings in R. solani infested soil amended with plant extract; assay type: in vivo, Rhizoctonia solani AG-4, isolate Rs 23A; settings: for % Disease suppression (+ PE + R. solani): cucumber damping off, soil amendment at 0.3% (v/w), four weeks after sowing
[2] = system: Rhizoctonia solani; experiment: Fungicidal vs fungistatic potential (regrowth of mycelial plugs on fresh PDA, 7 days); assay type: cell-based, Rhizoctonia solani AG-4, isolate Rs 23A
Description: The fungicidal and fungistatic potential of the PEs were determined by the method described by Garber and Houstan (Garber R. H., and B. R. Houston, Phytopathology, 49: 449-450 (1959)). In brief, three 5 mm diameter plugs were taken from the peripheral mycelial growth from each plate and placed in a fresh PDA plate. Following incubation at room temperature for 7 days, observations were recorded for new mycelial growth (fungistatic) or no mycelial growth (fungicidal). As control, peripheral mycelial plugs from soybean oil amended PDA plates were checked for fresh mycelial growth in fresh PDA plates.

[3] = system: Rhizoctonia solani; experiment: Filter disk fumigation method, mycelial growth inhibition on PDA; assay type: cell-based, Rhizoctonia solani AG-4, isolate Rs 23A; settings: for Fumig1 % inhibition: fumigation experiment 1; for Fumig2 % inhibition: fumigation experiment 2
Description: (§1) Fungal isolate and preparation of inoculum: Rhizoctonia solani AG-4, isolate Rs 23A is a highly virulent pathogenic isolate which infects many vegetables, ornamentals and turfgrasses (Lewis, J. A., and G. C. Papavizas, Soil Biology and Biochemistry, 9:195-201 (1987)). The fungus was grown in potato dextrose agar (PDA) plates and fungal plugs from the freshly growing mycelium were mixed with moist sterilized cracked wheat in a 2 L flask for 15 days in dark at 22° C. (Lakshman, D. K., et al., Proceedings of the National Academy of Science, USA, 95: 6425-6429 (1998)). The infested wheat was air dried in a sterile hood for 3 days, blended in a homogenizer and sieved through a mesh and stored at 2° C. before soil inoculation. A dose response of the inocula was carried out by thoroughly mixing using 0.25, 0.5, 0.75, 1.0, 1.25 and 1.50 g inoculums per Kg dry weight potting soil plus sterile water to maintain 25-30% moisture and incubating at room temperature for two weeks before sowing cucumber (cv muncher) seeds with the infested soil. The percent germination and post-emergence damping off of cucumber seedlings were recorded. The lowest inoculums dose that induced 100% postemergence damping off was estimated to be 1 to 1.25 g/Kg soil for inocula prepared over the span of the experiments. For soil fumigation with plant extracts (PEs), each time the minimum inoculum dose giving rise to 100% damping off was used.
In the second protocol, the chemical was kept not in direct contact with the fungus and we hypothesized that the plant extract will most likely influence the growth of the pathogen by fumigation action. In this approach, three sterile 15 mm filter paper (Whatman International Ltd, Maidstone, UK) disks were placed on the edge of each of three plates on the PDA. Each disk was impregnated in the center with various amounts (5-50 ul/disk) of the test solution/suspension. For negative control, only soybean oil was placed in the filter disk. […] The average radial growth was calculated and the experiment was repeated one more time. Percent growth inhibition was calculated as reported for poison bed assay.

[4] = system: Rhizoctonia solani; experiment: Poison food technique (contact action), mycelial growth inhibition in PDA; assay type: cell-based, Rhizoctonia solani AG-4, isolate Rs 23A; settings: for PoisonB1 % inhibition: poison bed experiment 1; for PoisonB2 % inhibition: poison bed experiment 2
Description: as §1
In vitro bioassays: Two in vitro bioassay methods were used to investigate the mycelial growth inhibitory potentials of PEs. In the poison food technique, test chemical/plant extract was mixed at concentrations of 15, 30, 45, 60, 75, and 150 μl per 20 ml autoclaved PDA at 50° C., poured on three sterile disposable plastic plates (100×15 mm, Fisherbrand) at 20 ml/plate and cooled to room temperature to solidify (Dhingra, O.D., and J. B. Sinclair, 1995, Basic Plant Pathology Methods, 2nd Edition, Lewis Publishers, Boca Raton and London). […] Each plate was seeded in the center with a 5 mm diameter agar disk of the freshly grown Rhizoctonia pathogen, mycelial side facing the medium, and sealed with stretched Parafilm® M (Fisher Scientific). The plates were incubated in the dark at room temperature and when the pathogen reached to the edge of the plates in the control treatment (soybean oil), radial measurement of fungal growth in plates treated with PEs were recorded by taking three measurements from each plate. The experiment was repeated one more time. The percent mycelial growth inhibition (MGI) due to PE was calculated using the following formula: […] where dc=Avg. radial growth in mm of pathogen in control plate; dt=avg. radial growth in mm of pathogen in treated plate.

[5] = system: cucumber seeds; experiment: Greenhouse assay of seed germination and phytotoxicity, soil treated with plant extract alone; settings: cucumber, in vivo, 0.3 % of PE in soil (3000 ppm)
Description: Soil treatment: For each treatment, 300 g of dry greenhouse soli (Pro-mix, Premier Horticulture LTD, Red Hill, Pa.) was thoroughly mixed with Rhizoctonia inoculum and incubated for 15 days as described above. […] The infested soil treated with only the carrier solution served as an untreated control. Following the treatment, the soil was thoroughly stirred to mix the contents and incubated in a double polythene bag closed tightly in the dark at room temperature for four days for fumigation to occur. Following the incubation, the bag was opened to allow as much PE to dissipate as possible. This was done by sprinkling the surface soil with sterile water every other day, and stirring the soil once every day for seven days. For assay of effect on seed germination and phytotoxicity of the plant extracts, soil was treated with plant extract formulations alone.
Greenhouse studies: Treated soil from each treatment was distributed to 4-inch plastic pots into which 12 seeds of cucumbers (95-100% germination) were sown and lightly watered to keep soil moist. The treatments were color coded and pots were randomized across treatment. All plants were kept in a greenhouse between 20° C. (night) to 26° C. (day) with 14 h of light. There were three pots per treatment in each experiment, and the experiment was repeated three times. As positive control, a broad spectrum popular soil fungicide Banrot® 40 WP (The Scotts Company, Ohio) was used following manufacturer's recommendation to control the disease. Total number of seedlings without any sign of damping off in each pot was recorded and percentage of disease suppression were calculated four weeks after sowing cucumber seeds.

With `C=CCN=C=S` [Allyisothiocynate] the “% Disease suppression (+ PE + R. solani)” value [1] was 88.92%, the “Fungicidal vs fungistatic nature at all concentrations tested” value ([2]; in vitro, fumigation and contact, all concentrations tested) was “fungicidal” and the “Inhibition of R. solani growth by fumigation action, in words” value ([3]; in vitro, filter disk) was “potent inhibitors”. The “Inhibition of R. solani growth by contact (poison bed assay), in words” value ([4]; in vitro, PDA) was “potent inhibitors”.
For `C=CC(C)(O)CCC=C(C)CCC=C(C)C` (mixture of isomers) [Nerolidol], the “Effect (fumigation)” value ([2]; amount oil 15 μL/20 mL plate) was “S”, the “Effect (poison bed, contact action)” value ([2]; amount oil 15 μL/20 mL plate) was “S” and the “Effect (fumigation)” value ([2]; amount oil 30 μL/20 mL plate) was “S”. For the same molecule, the “Effect (poison bed, contact action)” value ([2]; amount oil 30 μL/20 mL plate) was “S”, the “Effect (fumigation)” value ([2]; amount oil 45 μL/20 mL plate) was “S” and the “Effect (poison bed, contact action)” value ([2]; amount oil 45 μL/20 mL plate) was “S”. The “Effect (fumigation)” value ([2]; amount oil 60 μL/20 mL plate) was “S”, the “Effect (poison bed, contact action)” value ([2]; amount oil 60 μL/20 mL plate) was “S” and the “Effect (fumigation)” value ([2]; amount oil 75 μL/20 mL plate) was “S”. For the same molecule, the “Effect (poison bed, contact action)” value ([2]; amount oil 75 μL/20 mL plate) was “S”, the “Effect (fumigation)” value ([2]; amount oil 150 μL/20 mL plate) was “S” and the “Effect (poison bed, contact action)” value ([2]; amount oil 150 μL/20 mL plate) was “S”. It also gave a Fumig1 % inhibition ([3]; amount oil 15 μL/20 mL plate) of 0%, a Fumig2 % inhibition ([3]; amount oil 15 μL/20 mL plate) of 0% and a Fumig1 % inhibition ([3]; amount oil 30 μL/20 mL plate) of 0%. The Fumig2 % inhibition ([3]; amount oil 30 μL/20 mL plate) was 40%, the Fumig1 % inhibition ([3]; amount oil 45 μL/20 mL plate) was 0% and the Fumig2 % inhibition ([3]; amount oil 45 μL/20 mL plate) was 42%. The Fumig1 % inhibition ([3]; amount oil 60 μL/20 mL plate) was 0%, the Fumig2 % inhibition ([3]; amount oil 60 μL/20 mL plate) was 41% and the Fumig1 % inhibition ([3]; amount oil 75 μL/20 mL plate) was 0%. The Fumig2 % inhibition ([3]; amount oil 75 μL/20 mL plate) was 42%, the Fumig1 % inhibition ([3]; amount oil 150 μL/20 mL plate) was 0% and the Fumig2 % inhibition ([3]; amount oil 150 μL/20 mL plate) was 41%. For the same molecule, the PoisonB1 % inhibition ([4]; amount oil 15 μL/20 mL plate) was 71%, the PoisonB2 % inhibition ([4]; amount oil 15 μL/20 mL plate) was 78% and the PoisonB1 % inhibition ([4]; amount oil 30 μL/20 mL plate) was 78%. It also gave a PoisonB2 % inhibition ([4]; amount oil 30 μL/20 mL plate) of 81%, a PoisonB1 % inhibition ([4]; amount oil 45 μL/20 mL plate) of 83% and a PoisonB2 % inhibition ([4]; amount oil 45 μL/20 mL plate) of 87%. The PoisonB1 % inhibition ([4]; amount oil 60 μL/20 mL plate) was 84%, the PoisonB2 % inhibition ([4]; amount oil 60 μL/20 mL plate) was 90% and the PoisonB1 % inhibition ([4]; amount oil 75 μL/20 mL plate) was 87%. It also gave a PoisonB2 % inhibition ([4]; amount oil 75 μL/20 mL plate) of 92%, a PoisonB1 % inhibition ([4]; amount oil 150 μL/20 mL plate) of 89% and a PoisonB2 % inhibition ([4]; amount oil 150 μL/20 mL plate) of 99%.
`C=CCc1ccc(O)c(OC)c1` [Eugenol] was tested, and the “% Disease suppression (+ PE + R. solani)” value [1] was 44.42%, the “Avg. seed Germination (+ PE + R. solani)” value ([1]; cucumber, 12 seeds sown per pot, infested soil amended with 0.3% PE) was 5.33 and the “Avg. seed germination (+ PE only)” value [5] was 10.00.
